Measurements published in patent publication US9802929B2, “Benzo five-membered nitrogen heterocyclic piperidine or piperazine derivatives and preparation methods and pharmaceutical compositions thereof” (Shenyang Haiwang Biotechnology Co., Ltd., priority 2012, dated 2017).

Experiments:
α1 receptors = assay: Antagonism of α receptor agonist (noradrenaline / phenylephrine) cumulative contraction of rabbit aorta, pA2; conditions: for PA2 value against Phenylephrine contraction: Phenylephrine cumulative contraction; for PA2 value against NA contraction: noradrenaline (NA) cumulative contraction
Text: (§1) Cut the chest open quickly after stunning, strip out the descending aorta, then after removing the surrounding connective tissue and adipose tissue (if performed serotonin receptor antagonist experiments, endothelial cells should be removed using a smooth stainless steel bars), cut the vessels into 3-5 mm vascular ring, then pass the steel hook through the blood vessel ring, with one end is fixed to the vent hook and the other end connected to the tension transducer, then place the specimens into bath tube containing 20 mL of nutrient solution, and record tension change by tension transducer. Maintain tube temperature at 37±0.5° C., and pass bubbles (95% O2+5% CO2) into the solution as a speed of 1-2 bubbles/minute. Place an initial load of 1.5 g on the rings, and change nutrient every 20 minutes, then balance for 2 hours and start test after baseline readings are stabilized.
After the tension is stabilized, record a certain length of the curve, and add NA (10^−8-10^−4 mol/L) to the tube until a maximum response is achieved, and then record the curve. Then wash the specimen with K—H solution repeatedly, balance for 1 h, add compound II-36 (3×10^−7 mol/L), and 20 minutes later, add NA following a same procedure. Mark NA contraction as ordinate using maximum response as 100% base. […] The larger the PA2 value, the stronger the antagonist effect. It is calculated based on the values of the attached figures by software.
After the tension is stabilized, record a certain length of the curve, and add NA (10^−8-10^−4 mol/L) to the tube until a maximum response is achieved, and then record the curve. Then wash the specimens repeatedly with K—H solution, and refresh K—H solution every 20 minutes, and balance for 60 minutes to allow baseline values are stabilized; then add doxazosin (10^−7 mol/L) and after 15 minutes, add NA in the same way (10^−8-6×10^−5 mol/L). Mark NA contraction as ordinate using maximum response as 100% base. […] The PA2 value of positive control doxazosin is 7.52±0.04 against NA contraction of rabbit aorta.
(§2) After the tension is stabilized, record a certain length of the curve, and add NA (3×10^−7-6×10^−5 mol/L) to the tube until a maximum response is achieved, and then record the curve. Then wash the specimen with K—H solution repeatedly, balance for 1 h, add compound II-65 (3×10^−6 mol/L), and 20 minutes later, add NA (3×10^−7-3×10^−4 mol/L) following a same procedure. Mark NA contraction as ordinate using maximum response as 100% base. […] PA2 value of compound II-65 is 6.02±0.13 against NA contraction effect on rabbit aorta.
After above procedures, wash the specimen repeatedly with K—H solution, balance for 1 hour, add doxazosin (10^−7 mol/L), and add NA in the same way after 15 minutes. Mark NA contraction as ordinate using maximum response as 100% base. […] The PA2 value of positive control doxazosin is 7.16±0.24 against NA contraction of rabbit aorta.
as §2, with “Phenylephrine (10^−6-6×10^−3” for “NA (3×10^−7-6×10^−5”, “II-68 (3×10^−8” for “II-65 (3×10^−6”, “Phenylephrine” for “NA (3×10^−7-3×10^−4 mol/L)”, “Phenylephrine” for “NA”, “II-68” for “II-65”, “8.45±0.03” for “6.02±0.13”

5-HT2A receptors = assay: Antagonism of 5-HT cumulative contraction of rabbit aorta, pA2
Text: as §1
After the tension is stabilized, record a certain length of the curve, and add 5-HT (10^−7-3×10^−4 mol/L) to the tube until a maximum response is achieved, and then record the curve. Then wash the specimen with K—H solution repeatedly, balance for 1.5 h, add compound II-36 (3×10^−6 mol/L), and 20 minutes later, add 5-HT following a same procedure. Mark 5-HT contraction as ordinate using maximum response as 100% base. […]

SD rats = assay: Effect on blood pressure of urethane-anesthetized SD rats; format: in vivo; conditions: 4.0 mg/kg orally
Method: Four SD rats were anesthetized with urethane ([…]); after vital signs were stable, measure blood pressure through carotid artery cannulation. After blood pressure is stabilized, compound II-36 was administered orally (4.0 mg/kg, body weight), and blood pressure changes with time were recorded; study results are shown in Table 4, 5 and 6.

Kunming mice = assay: Bone marrow micronucleus test; conditions: mouse, in vivo
Method: After four days of continuous administration, perform bone marrow micronucleus test on the 5th day.
Positive contro, Cyclophosphamide 60 mg/kg/day; negative control, saline solution 0.1 ml/10 g/day. After four days of continuous administration, perform bone marrow micronucleus test on the 5th day.
The mice were sacrificed by cervical dislocation, and quickly stripped out of the femur and sternum;
blood and muscles were removed, epiphysis was cleaned; then sternum bone marrow was transfer with a hemostat squeeze onto clean slides with drops of calf serum or wash the femoral the marrow with fetal calf serum directly onto clean slides; after mixing, adjust slides well; then put the adjusted and aired slide into a staining jar filled with methanol, and allow to fix for 15 minutes; and then take it out and place in air until dry out; then, use freshly prepared Giemsa application solution (one sample of Giemsa stock solution and nine samples of phosphate buffer pH 6.8), stained for 10 minutes to wash away slide dye with small stream of water, and then observe under a microscope after it is dried.

[1] = time after administration 90, n = 4

SMILES: c1ccc2c(c1)nnn2CCCCN1CCN(c2nsc3ccccc23)CC1 [Compound II-68, 3-(4-(4-(1H-benzotriazol-1-yl)butyl)piperazin-1-yl)benzisothiazole]
- PA2 value against Phenylephrine contraction (α1 receptors): 8.45±0.03
- PA2 value against 5-HT contraction (5-HT2A receptors): 8.86±0.14

SMILES: FC(F)(F)c1cccc(N2CCN(CCCCn3nnc4ccccc43)CC2)c1 [Compound II-65, 1-(4-(4-(3-trifluoromethylphenyl)piperazin-1-yl)butyl)-1H-benzotriazole]
- PA2 value against NA contraction (α1 receptors): 6.02±0.13
- PA2 value against 5-HT contraction (5-HT2A receptors): 6.726±0.089

SMILES: FC(F)(F)c1cccc(N2CCN(CCCCn3cnc4ccccc43)CC2)c1 [Compound II-36, 1-(4-(4-(3-trifluoromethylphenyl)piperazin-1-yl)butyl)-1H-benzimidazole]
- hypotensive effect (in words) (SD rats): significant hypotensive effect
- time until blood pressure recovered to the level before administration (SD rats): 3.5 h
- mean arterial pressure (MAP) (SD rats; time after administration 0, n = 4): 91.50 mmHg
- mean arterial pressure (MAP) (SD rats; time after administration 15, n = 4): 73.40 mmHg
- mean arterial pressure (MAP) (SD rats; time after administration 30, n = 4): 74.52 mmHg
- mean arterial pressure (MAP) (SD rats; time after administration 60, n = 4): 72.77 mmHg
- Systolic blood pressure (SBP) (SD rats; [1]): 98.71 mmHg
- mean arterial pressure (MAP) (SD rats; [1]): 68.81 mmHg
- mean arterial pressure (MAP) (SD rats; time after administration 120, n = 4): 83.12 mmHg
- mean arterial pressure (MAP) (SD rats; time after administration 150, n = 4): 84.47 mmHg
- mean arterial pressure (MAP) (SD rats; time after administration 180, n = 4): 84.83 mmHg
- mean arterial pressure (MAP) (SD rats; time after administration 210, n = 4): 88.54 mmHg
- PA2 value against Phenylephrine contraction (α1 receptors): 7.37±0.08
- PA2 value against NA contraction (α1 receptors): 7.37±0.08
- polychromatic erythrocytes with micronucleus (Kunming mice; both, Kunming, 4 days): 2.0±0.333 ‰
- bone marrow micronucleus test result (Kunming mice): negative
